Measurements taken from publication PMC10100771, “A Novel CMY Variant Confers Transferable High-Level Resistance to Ceftazidime-Avibactam in Multidrug-Resistant Escherichia coli” (Microbiology Spectrum, 2023).
Values after ≈ are worked out from the molar mass of the structure shown.

What was measured:
E. coli strain AR13438 = assay: MIC by agar dilution, clinical isolate AR13438; type: cell-based, Escherichia coli; conditions: for MIC: Escherichia coli, AR13438, clinical E. coli isolate (blaCMY-178, blaTEM-1, blaCTX-M-27), agar dilution
Description: (§1) Antimicrobial susceptibility testing was performed and interpreted according to the Clinical and Laboratory Standards Institute (CLSI) guidelines and breakpoints (M100, 31st edition) by the agar dilution method. E. coli ATCC 25922 and K. pneumoniae ATCC 700603 served as control strains.
(§2) The antibiotics we used included meropenem (Hanhui Pharmaceutical Co., Ltd., China), imipenem (Merck Sharp & Dohme Corp., USA), cefepime (Jiangsu Hengrui Pharmaceutical Co., Ltd., China), piperacillin (Suzhou Erye Pharmaceutical Co., Ltd., China), ceftazidime (Guangdong Jincheng Jinsu Pharmaceutical Co., Ltd., China), tazobactam (Meilunbio, China), avibactam (MedChemExpress, USA), aztreonam (Sigma-Aldrich, USA), amikacin (Meilunbio), cefuroxime (Esseti Farmaceutici S.r.l., Italy), fosfomycin (Harbin Pharmaceutical Group Co., Ltd. China), levofloxacin (Daiichi Sankyo Company Limited, Beijing, China), and cefotaxime (North China Pharmaceutical Hebei Huamin Pharmaceutical Co., Ltd., China).

[1] = test system: K. pneumoniae isolate KPCZA02; assay: microbe, parasite or virus in culture; type: cell-based; conditions: Klebsiella pneumoniae
Description: as §1

E. coli DH5α = assay: MIC by agar dilution, E. coli DH5α; type: cell-based; conditions: Escherichia coli
Description: as §1, §2

E. coli DH5α-pCR2.1 = assay: MIC by agar dilution, DH5α with blank vector pCR2.1; type: cell-based; conditions: Escherichia coli
Description: as §1, §2
(§3) The blaCMY cloning was performed using a TA cloning kit (Invitrogen, Shanghai, China). The blaCMY-178 gene combined with its predicted promoter was amplified from isolate AR13438. Then, the blaCMY-178 gene was cloned into the linearized vector pCR2.1 using T4 DNA ligase (Invitrogen). The blaCMY-172 gene was cloned from KPCZA02 with the same method. The resulting plasmids were chemically transformed into E. coli DH5α. The positive transformants were identified by blue-white screening in MH agar containing 50 μg/mL kanamycin and were further confirmed by Sanger sequencing. The pCR2.1 blank vector was also transformed into E. coli DH5α as a control. The primers used for cloning were CMY-F and CMY-R (see Table S2 in the supplemental material). Relative CMY expression was measured by reverse transcription-quantitative PCR as described previously ([34]). Specific quantitative PCR (qPCR) primers (q-recA-F/R and q-CMY-F/R) were designed (Table S2).

E. coli J53 = assay: MIC by agar dilution, recipient E. coli J53; type: cell-based; conditions: Escherichia coli
Description: as §1, §2
(§4) Conjugation experiments were performed by filter mating using sodium-azide-resistant E. coli J53 as the recipient, as described previously. Transconjugants were selected with MH agar containing 100 μg/mL sodium azide and 4 μg/mL ceftazidime-avibactam; furthermore, transconjugants were named J53-AR13438 and J53-KPCZA02, respectively. We compared genomes of AR13438 and J53 to select a unique gene (gtrA) to J53. The blaCMY-178-postive transconjugants were confirmed by PCR and MALDI-TOF MS (see Fig. S9 in the supplemental material). The primers used for PCR were gtrA-F, gtrA-R, CMY-F, and CMY-R (Table S1). The transfer frequencies were calculated as the number of transconjugants (CFU/mL) divided by the number of recipients (CFU/mL). Donors and recipients were mixed at 1:1 for the transfer frequency experiment. S1-PFGE and Southern blotting were performed to define the location of blaCMY-178 and confirm the transmission of the plasmid as described previously ([35]). The MIC profiles of transconjugants were also determined by the agar dilution method.

E. coli J53-AR13438 = assay: MIC by agar dilution, conjugant containing pAR13438_2; type: cell-based; conditions: Escherichia coli, J53AR13438, E. coli J53-AR13438 (blaCMY-178)
Description: as §1
as §4, with “The blaCMY-178-postive transconjugants were confirmed by PCR and MALDI-TOF MS (see Fig. S9 in the supplemental material).” left out

E. coli J53-KPCZA02 = assay: MIC by agar dilution, conjugant containing pKPCZA02_4; type: cell-based; conditions: Escherichia coli, J53KPCZA02, E. coli J53-KPCZA02 (blaCMY-172)
Description: as §1
as §4, with “The blaCMY-178-postive transconjugants were confirmed by PCR and MALDI-TOF MS (see Fig. S9 in the supplemental material).” left out

[2] = test system: E. coli DH5α-pCR2.1-CMY-2; assay: MIC by agar dilution, transformant containing blaCMY-2; type: cell-based; conditions: Escherichia coli
[3] = test system: E. coli DH5α-pCR2.1-CMY-178; assay: MIC by agar dilution, transformant containing blaCMY-178; type: cell-based, Escherichia coli; conditions: Escherichia coli; E. coli DH5α-pCR2.1-CMY-178; agar dilution
Description: as §1, §2, §3

[4] = test system: E. coli DH5α-pCR2.1-CMY-172; assay: MIC by agar dilution, transformant containing blaCMY-172; type: cell-based; conditions: Escherichia coli
Description: as §1, §2, §3

CMY-172 = biological target: T1, CMY-172 (Klebsiella pneumoniae, UniProt Q48434, DEL310-312/N366I); assay: Enzyme kinetics (substrate hydrolysis) of purified CMY-172; type: biochemical
T1 construct: were amplified without a signal peptide and cloned into the pET28a; His8 (N); made in house; host or cells: E. coli BL21(DE3)
Description: (§5) blaCMYs (including blaCMY-2, blaCMY-172, and blaCMY-178) were amplified without a signal peptide and cloned into the pET28a, which led to the introduction of an N-terminal His8-Tag.The recombinant plasmids were transformed into E. coli BL21(DE3) and selected using Sanger sequencing. Lysogenic broth containing 50 μg/mL kanamycin was inoculated with transformants and grown to reach an OD600 of 0.6. A final concentration of 1 mM isopropyl-β-D-thiogalactopyranoside (IPTG) was added into the resulting culture, which was shaken at 18°C overnight. The culture broth was centrifuged to harvest bacteria. The pellet was resuspended in lysis buffer (50 mM Tris-HCl and 300 mM NaCl (pH 7.5)) and disrupted using a JN-02C French press (JNBIO, Guangzhou, China) at 1,100 bar. Then, the cell debris was removed by centrifugation at 11,000 rpm for 40 min at 4°C. The supernatant was added to an Ni column, and the absorbed protein was eluted by the eluent buffer (lysis buffer with 300 mM imidazole). SDS-PAGE confirmed the protein purity of the eluent (>95%), and the sample was loaded onto a pre-equilibrated Superdex 200 column to eliminate imidazole.
(§6) Enzymatic activities were measured using a D8 UV-visible spectrophotometer (Rumqee, Shanghai, China) in phosphate-buffered saline (PBS; pH 7.2) at room temperature. Substrates tested included nitrocefin, ceftazidime, and avibactam. The extinction coefficient and wavelength of nitrocefin are 17,400 M^−1 · cm^−1 and 482 nm, respectively. […] The initial reaction velocities (v) were measured and Ki values were calculated by fitting data into equation 1 with GraphPad Prism v9.0.0 ([37]). (1) v=Vmax[S]/[S]+Km NCF (1+[I]/Ki)

CMY-178 = biological target: T2, CMY-178 (Klebsiella pneumoniae, UniProt Q48434, DEL310-312/N366I/N90T); assay: Enzyme kinetics (substrate hydrolysis) of purified CMY-178; type: biochemical, Escherichia coli
T2 construct: were amplified without a signal peptide and cloned into the pET28a; His8 (N); made in house; host or cells: E. coli BL21(DE3)
Description: as §5, §6

[5] = test system: O=C(Cc1cccs1)N[C@@H]1C(=O)N2C(C(=O)O)=C(/C=C/c3ccc([N+](=O)[O-])cc3[N+](=O)[O-])CS[C@H]12; assay: Enzyme kinetics (substrate hydrolysis) of purified CMY-2; type: biochemical; conditions: other: CMY-2, PBS pH 7.2, room temperature, mean ± SD, three experiments
Description: as §5, §6

[6] = CMY-172, PBS pH 7.2, room temperature, mean ± SD, three experiments
[7] = CMY-178, PBS pH 7.2, room temperature, mean ± SD, three experiments

Molecule	MIC (E. coli strain AR13438) [µg/mL]	MIC [1] [µg/mL]	MIC (E. coli DH5α) [µg/mL]	MIC (E. coli DH5α-pCR2.1) [µg/mL]	MIC (E. coli J53) [µg/mL]	MIC (E. coli J53-AR13438) [µg/mL]	MIC (E. coli J53-KPCZA02) [µg/mL]	Antimicrobial susceptibility category (E. coli strain AR13438; AR13438, CLSI breakpoints (M100, 31st edition))	MIC [2] [µg/mL]	MIC [3] [µg/mL]	MIC [4] [µg/mL]	Kcat (CMY-172; [6]) [s⁻¹]	Km (CMY-172; [6]) [µM]	Decrease of kcat/Km compared with CMY-2 (CMY-172; CMY-172 vs CMY-2)	Kcat (CMY-178; [7]) [s⁻¹]	Km (CMY-178; [7]) [µM]	Decrease of kcat/Km compared with CMY-2 (CMY-178; CMY-178 vs CMY-2)	Km [5] [µM]	kcat [5] [s⁻¹]	kcat/Km [5] [M⁻¹ s⁻¹]
C[C@@H]1O[C@@H]1P(=O)(O)O [FOS, fosfomycin]	1 (≈ 7.24 µM)	> 1020	0.25 (≈ 1.81 µM)	0.25 (≈ 1.81 µM)	0.5 (≈ 3.62 µM)	0.5 (≈ 3.62 µM)	0.5 (≈ 3.62 µM)	–	–	–	–	–	–	–	–	–	–	–	–	–
C[C@@H](O)[C@H]1C(=O)N2C(C(=O)O)=C(SCCN=CN)C[C@H]12 [IMP, imipenem]	1 (≈ 3.34 µM)	64 (≈ 214 µM)	0.25 (≈ 0.835 µM)	–	0.5 (≈ 1.67 µM)	0.5 (≈ 1.67 µM)	0.5 (≈ 1.67 µM)	–	–	–	–	–	–	–	–	–	–	–	–	–
C[C@H]1COc2c(N3CCN(C)CC3)c(F)cc3c(=O)c(C(=O)O)cn1c23 [LEV, levofloxacin]	32 (≈ 88.6 µM)	32 (≈ 88.6 µM)	0.03 (≈ 0.083 µM)	0.03 (≈ 0.083 µM)	0.03 (≈ 0.083 µM)	0.03 (≈ 0.083 µM)	0.03 (≈ 0.083 µM)	resistant	0.06 (≈ 0.166 µM)	0.06 (≈ 0.166 µM)	–	–	–	–	–	–	–	–	–	–
C[C@@H](O)[C@H]1C(=O)N2C(C(=O)O)=C(S[C@@H]3CN[C@H](C(=O)N(C)C)C3)[C@H](C)[C@H]12 [MEM, meropenem]	0.125 (≈ 0.326 µM)	128 (≈ 334 µM)	0.03 (≈ 0.0782 µM)	0.03 (≈ 0.0782 µM)	0.03 (≈ 0.0782 µM)	0.06 (≈ 0.156 µM)	0.06 (≈ 0.156 µM)	–	–	0.06 (≈ 0.156 µM)	0.06 (≈ 0.156 µM)	–	–	–	–	–	–	–	–	–
O=C(Cc1cccs1)N[C@@H]1C(=O)N2C(C(=O)O)=C(/C=C/c3ccc([N+](=O)[O-])cc3[N+](=O)[O-])CS[C@H]12 [NCF, nitrocefin]	–	–	–	–	–	–	–	–	–	–	–	52.41 ± 2.65	12 ± 0.66	approximately 3 fold	55.81 ± 1.04	12.5 ± 0.31	approximately 3 fold	–	–	–
CCN1CCN(C(=O)N[C@@H](C(=O)N[C@@H]2C(=O)N3[C@@H]2SC(C)(C)[C@@H]3C(=O)O)c2ccccc2)C(=O)C1=O [PIP, piperacillin]	> 256	> 256	1 (≈ 1.93 µM)	1 (≈ 1.93 µM)	4 (≈ 7.73 µM)	64 (≈ 124 µM)	64 (≈ 124 µM)	–	256 (≈ 495 µM)	256 (≈ 495 µM)	256 (≈ 495 µM)	–	–	–	–	–	–	–	–	–
CMY-2 (Klebsiella pneumoniae)	–	–	–	–	–	–	–	–	–	–	–	–	–	–	–	–	–	59.88 ± 2.59	732 ± 16.1	1.22e+07 ± 600000
